This is an account of results in patent US20250092033A1, “HETEROAROMATIC NITROGEN-OXIDE COMPOUND, PREPARATION METHOD THEREFOR, AND USE THEREOF” (BEIJING AVISTONE BIOTECHNOLOGY CO., LTD., priority 2021, published 2025).

One assay deals with Hs746T cell line. The assay is described as follows: Cell proliferation inhibition experiment (CellTiter-Glo), Hs746T. It counts as cell-based. The settings on record: Homo sapiens, Hs 746T, CTG, 72 h. Here is the method: (§1) CellTiter-Glo™ live cell detection kit adopts luciferase as the detection substance, and the luciferase needs the participation of ATP in the luminescence process. CellTiter-Glo™ reagent was added into the cell culture medium and the luminescence value was measured. The light signal is in direct proportion to the amount of ATP in the system, ATP is in direct correlation with number of living cells. Therefore, the proliferation of cells can be detected by detecting the content of ATP with CellTiter-Glo kit.
(§2) In the experiment, the proliferation inhibition effect of the prepared compounds on tumor cell lines Hs746T, EBC-1 and H1993 was measured by a celltiter-glo (CTG) method, and 50% inhibition concentration IC50 was calculated.
(§3) The compounds were determined on the selected cells, the solvent control was set and a total of 10 concentrations were detected, 2 replicates per concentration.
(§4) a) Cells in the logarithmic growth phase were harvested and counted by a […]. The cell viability was detected by a trypan blue exclusion method to ensure that the cell viability was over 90%.
(§5) b) The cell concentration was adjusted; 30 μL of cell suspension was added to a 384-well plate respectively.
(§6) c) Cells in a 384-well plate were incubated overnight at 37° C., 5% CO2 and 95% humidity.
(§7) a) 10 times of drug solution was prepared with the highest concentration of 10 mM, 10 concentrations and 3 times dilution, 10 μL of drug solution was added into each well of a 384-well plate inoculated with cells, and three multiple wells were arranged for each drug concentration. DMSO was the blank control.
(§8) b) The cells in the 384-well plate were incubated for a further 72 h at 37° C., 5% CO2 and 95% humidity before CTG analysis.
(§9) a) The CTG reagent was melted and the cell plate was equilibrated to room temperature for 30 min.
(§10) b) An equal volume of CTG solution was added to each well.
(§11) c) Cells were lysed by shaking on an orbital shaker for 5 minutes.
(§12) d) The cell plate was left at room temperature for 20 minutes to stabilize the luminescence signal.
(§13) e) The cold light value was read.
(§14) The data was analyzed by GraphPad Prism 8 software, and the dose-response curve was fitted with nonlinear S-curve regression, and the IC50 value was calculated therefrom.
(§15) Cell viability(%)=(Lumdrugs to be tested-Lumblank control)/(Lumcell control-Lumblank control)×100%.

In a further assay the target is T1, MET D1228N (Homo sapiens, UniProt P08581, D1228N).
T1 construct: purchased Signalchem M52-12IG
T1 sequence (P08581 25-1390 D1228N): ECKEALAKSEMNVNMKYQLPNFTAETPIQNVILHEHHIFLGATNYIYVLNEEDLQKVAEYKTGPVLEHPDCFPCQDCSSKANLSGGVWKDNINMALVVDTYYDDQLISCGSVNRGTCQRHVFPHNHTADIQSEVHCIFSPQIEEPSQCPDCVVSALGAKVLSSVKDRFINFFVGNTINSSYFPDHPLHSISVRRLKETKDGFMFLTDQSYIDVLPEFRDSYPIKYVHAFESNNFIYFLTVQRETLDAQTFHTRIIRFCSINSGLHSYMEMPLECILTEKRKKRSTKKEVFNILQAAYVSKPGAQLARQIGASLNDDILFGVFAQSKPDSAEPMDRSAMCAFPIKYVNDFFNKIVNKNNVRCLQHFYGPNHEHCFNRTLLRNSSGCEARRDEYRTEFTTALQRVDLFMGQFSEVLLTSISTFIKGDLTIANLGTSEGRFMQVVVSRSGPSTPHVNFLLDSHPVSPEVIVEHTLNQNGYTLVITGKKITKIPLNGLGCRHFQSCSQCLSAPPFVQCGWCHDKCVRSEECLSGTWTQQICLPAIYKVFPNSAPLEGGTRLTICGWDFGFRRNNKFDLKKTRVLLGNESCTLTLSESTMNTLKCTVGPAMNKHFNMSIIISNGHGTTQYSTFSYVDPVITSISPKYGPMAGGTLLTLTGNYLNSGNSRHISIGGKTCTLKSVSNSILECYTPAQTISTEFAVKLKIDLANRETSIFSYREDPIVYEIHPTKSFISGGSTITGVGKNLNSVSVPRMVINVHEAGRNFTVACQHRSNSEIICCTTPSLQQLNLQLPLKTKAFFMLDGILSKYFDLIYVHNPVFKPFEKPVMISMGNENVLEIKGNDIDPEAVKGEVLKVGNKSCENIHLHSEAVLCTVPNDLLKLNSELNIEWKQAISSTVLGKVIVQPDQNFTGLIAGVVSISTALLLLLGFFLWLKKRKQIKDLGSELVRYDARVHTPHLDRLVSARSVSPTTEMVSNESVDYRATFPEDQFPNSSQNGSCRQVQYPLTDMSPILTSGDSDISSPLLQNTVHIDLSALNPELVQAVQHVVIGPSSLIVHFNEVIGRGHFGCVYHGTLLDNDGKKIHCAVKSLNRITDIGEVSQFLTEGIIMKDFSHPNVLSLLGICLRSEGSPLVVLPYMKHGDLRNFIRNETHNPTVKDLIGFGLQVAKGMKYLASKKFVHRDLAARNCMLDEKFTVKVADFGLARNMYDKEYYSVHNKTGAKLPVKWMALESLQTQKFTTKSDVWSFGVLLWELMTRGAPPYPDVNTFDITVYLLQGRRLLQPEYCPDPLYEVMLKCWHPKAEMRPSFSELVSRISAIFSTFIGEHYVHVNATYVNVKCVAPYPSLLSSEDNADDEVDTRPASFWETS
The assay is described as follows: Kinase inhibition experiment (HTRF KinEASE-TK kit), mutant MET D1228N. It is filed as biochemical. The settings on record: 10 concentrations, 3-fold dilution. Summed up: (§16)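 Wild-type or mutant MET pre-incubated 10 min with compound (10 concentrations, 3-fold dilutions, duplicates), then TK-substrate-biotin/ATP added for 50 or 10 min at room temperature in buffer with 5 mM MgCl2, 1 mM DTT, 1 mM MnCl2. HTRF read at 665/615 nm; % inhibition vs controls, IC50 by nonlinear sigmoidal fit.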
(Time-resolved FRET reads energy transfer from a long-lived donor to a nearby acceptor.)

Assay [1] concerns the target T2, wild type (WT) MET kinase (Homo sapiens, UniProt P08581).
T2 construct: purchased Carna 08-151
Put plainly: Kinase inhibition experiment (HTRF KinEASE-TK kit), wild-type MET. It counts as biochemical. Particulars: 10 concentrations, 3-fold dilution. Summed up: as §16

In the next assay the target is T3, MET F1200I (Homo sapiens, UniProt P08581, F1200I).
T3 construct: purchased Signalchem M52-12GG/Y767-2
T3 sequence (P08581 25-1390 F1200I): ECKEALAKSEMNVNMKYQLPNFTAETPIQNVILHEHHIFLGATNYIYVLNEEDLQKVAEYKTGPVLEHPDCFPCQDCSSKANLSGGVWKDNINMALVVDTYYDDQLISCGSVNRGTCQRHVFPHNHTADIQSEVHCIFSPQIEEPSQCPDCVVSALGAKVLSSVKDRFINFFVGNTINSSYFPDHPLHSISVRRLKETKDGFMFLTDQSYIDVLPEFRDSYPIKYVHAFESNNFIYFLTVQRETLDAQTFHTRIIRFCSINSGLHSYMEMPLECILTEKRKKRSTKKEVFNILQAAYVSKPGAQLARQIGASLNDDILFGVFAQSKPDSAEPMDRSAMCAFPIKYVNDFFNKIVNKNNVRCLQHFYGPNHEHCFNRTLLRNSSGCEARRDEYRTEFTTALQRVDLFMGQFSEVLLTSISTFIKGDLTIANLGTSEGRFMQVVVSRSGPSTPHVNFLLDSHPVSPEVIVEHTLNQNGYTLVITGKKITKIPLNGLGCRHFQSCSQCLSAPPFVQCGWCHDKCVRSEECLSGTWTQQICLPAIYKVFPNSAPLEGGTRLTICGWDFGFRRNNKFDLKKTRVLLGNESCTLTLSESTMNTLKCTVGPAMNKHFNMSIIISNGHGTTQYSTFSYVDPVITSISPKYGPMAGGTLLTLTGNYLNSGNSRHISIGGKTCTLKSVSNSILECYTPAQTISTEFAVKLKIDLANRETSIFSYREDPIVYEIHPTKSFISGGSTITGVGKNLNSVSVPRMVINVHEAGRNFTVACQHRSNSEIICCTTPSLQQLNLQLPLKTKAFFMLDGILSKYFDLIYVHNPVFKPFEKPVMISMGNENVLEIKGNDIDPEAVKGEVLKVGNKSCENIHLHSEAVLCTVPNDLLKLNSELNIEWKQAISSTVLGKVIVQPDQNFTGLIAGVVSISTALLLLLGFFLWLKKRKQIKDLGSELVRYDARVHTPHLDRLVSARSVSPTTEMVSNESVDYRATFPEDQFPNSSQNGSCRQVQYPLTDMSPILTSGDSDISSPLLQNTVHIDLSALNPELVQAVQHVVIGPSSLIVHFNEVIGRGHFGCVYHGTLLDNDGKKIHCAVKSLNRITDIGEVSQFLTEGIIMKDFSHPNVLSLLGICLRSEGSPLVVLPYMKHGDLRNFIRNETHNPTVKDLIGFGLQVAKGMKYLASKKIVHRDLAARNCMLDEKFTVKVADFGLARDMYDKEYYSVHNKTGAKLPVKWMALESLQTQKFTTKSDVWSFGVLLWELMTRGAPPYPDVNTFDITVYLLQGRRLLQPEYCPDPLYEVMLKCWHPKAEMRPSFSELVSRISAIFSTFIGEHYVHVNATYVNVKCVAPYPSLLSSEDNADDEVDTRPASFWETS
The assay is described as follows: Kinase inhibition experiment (HTRF KinEASE-TK kit), mutant MET F1200I. It counts as biochemical. The settings on record: 10 concentrations, 3-fold dilution. Summed up:
as §16

Another assay concerns EBC-1 cell line. Put plainly: Cell proliferation inhibition experiment (CellTiter-Glo), EBC-1. It counts as cell-based. Particulars: Homo sapiens, CTG, 72 h. Here is the method:
as §1, §2, §3, §4, §5, §6, §7, §8, §9, §10, §11, §12, §13, §14, §15

The test system of a further assay is H1993 cell line. The assay is described as follows: Cell proliferation inhibition experiment (CellTiter-Glo), H1993. It is filed as cell-based. Particulars: Homo sapiens, NCI-H1993, CTG, 72 h. Here is the method:
as §1, §2, §3, §4, §5, §6, §7, §8, §9, §10, §11, §12, §13, §14, §15
A general note: Cellular ATP, detected with luciferase, serves as a proxy for viable cell number.

T2 sequence (P08581 25-1390): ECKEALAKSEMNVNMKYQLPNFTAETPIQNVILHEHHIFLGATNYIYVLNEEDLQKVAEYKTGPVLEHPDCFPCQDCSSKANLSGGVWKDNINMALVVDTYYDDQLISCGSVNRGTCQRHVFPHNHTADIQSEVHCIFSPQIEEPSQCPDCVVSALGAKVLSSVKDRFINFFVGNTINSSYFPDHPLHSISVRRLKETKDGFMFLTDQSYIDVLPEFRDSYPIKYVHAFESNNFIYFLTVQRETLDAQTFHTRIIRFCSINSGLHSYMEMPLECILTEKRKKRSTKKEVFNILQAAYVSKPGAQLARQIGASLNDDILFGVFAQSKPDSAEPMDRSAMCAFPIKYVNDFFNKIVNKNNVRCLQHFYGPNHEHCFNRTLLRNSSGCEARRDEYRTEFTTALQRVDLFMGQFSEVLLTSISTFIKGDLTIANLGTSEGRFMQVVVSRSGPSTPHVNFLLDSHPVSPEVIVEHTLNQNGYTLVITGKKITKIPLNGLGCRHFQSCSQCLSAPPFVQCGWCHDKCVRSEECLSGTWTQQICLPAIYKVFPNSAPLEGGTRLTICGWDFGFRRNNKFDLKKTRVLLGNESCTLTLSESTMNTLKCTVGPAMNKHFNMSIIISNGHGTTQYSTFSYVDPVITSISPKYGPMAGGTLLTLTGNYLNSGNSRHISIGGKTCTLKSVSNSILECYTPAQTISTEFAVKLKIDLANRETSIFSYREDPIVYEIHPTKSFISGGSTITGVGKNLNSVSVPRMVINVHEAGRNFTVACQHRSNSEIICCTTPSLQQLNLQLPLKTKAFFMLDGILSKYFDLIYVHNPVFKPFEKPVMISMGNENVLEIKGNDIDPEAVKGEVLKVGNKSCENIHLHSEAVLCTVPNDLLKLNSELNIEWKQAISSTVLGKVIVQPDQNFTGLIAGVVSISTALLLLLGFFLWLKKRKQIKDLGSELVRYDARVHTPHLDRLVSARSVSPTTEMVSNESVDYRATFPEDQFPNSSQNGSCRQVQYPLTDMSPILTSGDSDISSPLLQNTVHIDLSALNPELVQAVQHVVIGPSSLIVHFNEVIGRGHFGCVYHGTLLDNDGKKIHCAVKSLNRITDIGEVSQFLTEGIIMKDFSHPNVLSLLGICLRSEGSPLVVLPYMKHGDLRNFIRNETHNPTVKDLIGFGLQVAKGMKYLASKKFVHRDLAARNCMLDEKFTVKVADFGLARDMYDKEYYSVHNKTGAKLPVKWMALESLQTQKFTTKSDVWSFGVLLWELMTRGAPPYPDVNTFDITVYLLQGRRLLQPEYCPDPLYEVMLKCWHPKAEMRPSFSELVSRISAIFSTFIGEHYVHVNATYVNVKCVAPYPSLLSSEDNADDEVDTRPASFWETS

As for `C[C@H](CO)Nc1n[nH]c2nccc(Oc3ccc(NC(=O)c4ccc(Cl)c(-c5ccc(F)cc5)[n+]4[O-])cc3F)c12` [Final product 57], the IC50 turned out to be 11.4 nM in the assay on Hs746T cell line; 28.5 nM against MET D1228N; 1.6 nM in assay [1]; 2.8 nM on MET F1200I; 19.6 nM with EBC-1 cell line; 59.5 nM in the assay with H1993 cell line.
As for `Cc1ccc(C(=O)Nc2ccc(Oc3ccnc4[nH]nc(N[C@H](C)CO)c34)c(F)c2)[n+]([O-])c1-c1ccc(F)cc1` [Final product 67], the IC50 amounted to 4.2 nM with Hs746T cell line; 12.3 nM on MET D1228N; 4 nM in assay [1]; 16.3 nM at MET F1200I; 6.6 nM in the assay with EBC-1 cell line; 19.1 nM in the assay on H1993 cell line.
Consider `O=C(Nc1ccc(Oc2ccnc3[nH]cc(-c4cccnc4)c23)c(F)c1)c1ccc(Cl)c(-c2ccc(F)cc2)[n+]1[O-]` [Final product 185, reference compound], for which the IC50 is 155 nM in the assay on Hs746T cell line; 62 nM against MET D1228N; 20.4 nM in assay [1]; 187 nM against MET F1200I; 133 nM in the assay with EBC-1 cell line; 204 nM with H1993 cell line.
Turning to `COc1ccc(C(=O)Nc2ccc(Oc3ccnc4[nH]nc(N[C@H](C)CO)c34)c(F)c2)[n+]([O-])c1-c1ccc(F)cc1` [Final product 85], the IC50 with Hs746T cell line was 9.4 nM; against MET D1228N it was 10.5 nM; in assay [1] it was 3.7 nM; on MET F1200I, 2.3 nM; in the assay on EBC-1 cell line, 10.4 nM; with H1993 cell line it was 29.6 nM.
In the case of `C[C@H](CO)Nc1n[nH]c2nccc(Oc3ccc(NC(=O)c4ccc(F)c(-c5ccc(F)cc5)[n+]4[O-])cc3F)c12` [Final product 53], the IC50 was determined as 14.6 nM in the assay with Hs746T cell line; 4.8 nM against MET D1228N; 2 nM in assay [1]; 8.7 nM at MET F1200I; 15.7 nM with EBC-1 cell line; 29 nM in the assay with H1993 cell line.
Turning to `C[C@H](CO)Nc1n[nH]c2nccc(Oc3ccc(NC(=O)c4ccc(F)c(-c5ccc(F)cc5)[n+]4[O-])cc3Cl)c12` [Final product 117], the IC50 amounted to 7 nM in the assay on Hs746T cell line; 17.8 nM against MET D1228N; 0.9 nM in assay [1]; 0.9 nM at MET F1200I; 17.2 nM in the assay on EBC-1 cell line; 57.2 nM in the assay with H1993 cell line.
For the compound `C[C@H](CO)Nc1n[nH]c2nccc(Oc3ccc(NC(=O)c4cccc(-c5ccc(F)cc5F)[n+]4[O-])cc3F)c12` [Final product 44], the IC50 in the assay with Hs746T cell line came out at 15.2 nM; against MET D1228N, 14.8 nM; in assay [1] it was 2.5 nM; against MET F1200I, 6.7 nM; with EBC-1 cell line it was 21.3 nM; in the assay on H1993 cell line, 85.3 nM.
Consider `CCC(CO)Nc1n[nH]c2nccc(Oc3ccc(NC(=O)c4cccc(-c5ccc(F)cc5)[n+]4[O-])cc3F)c12` (stereo not drawn) [Final product 4], for which the IC50 in the assay with Hs746T cell line was determined as 12.6 nM; on MET D1228N it was 15.7 nM; in assay [1], 2.2 nM; at MET F1200I, 10 nM; in the assay with EBC-1 cell line, 14.4 nM; in the assay with H1993 cell line, 54.9 nM.
In the case of `COc1ccc(C(=O)Nc2ccc(Oc3ccnc4[nH]nc(N[C@H](C)CO)c34)c(Cl)c2)[n+]([O-])c1-c1ccc(F)cc1` [Final product 138], the IC50 in the assay on Hs746T cell line was 8.7 nM; against MET D1228N, 38.5 nM; in assay [1], 1.6 nM; against MET F1200I it was 0.6 nM; in the assay on EBC-1 cell line, 9.4 nM; with H1993 cell line, 29.3 nM.

Usually IC50 stands for the concentration at which inhibition is half-maximal. A higher IC50 goes with a need for much substance.
